In patent US20210115018A1, “PIPERIDINE COMPOUNDS AS COVALENT MENIN INHIBITORS” (THE REGENTS OF THE UNIVERSITY OF MICHIGAN, priority 2018, published 2021):

How the values were obtained:
menin protein = target: T1, menin protein (Homo sapiens, UniProt O00255); assay: Fluorescence polarization (FP) competitive binding assay, menin binding affinity; conditions: FP competition with FAM-MM2 probe 2 nM, menin 4 nM, 30 minutes room temperature
T1 sequence (O00255 1-610): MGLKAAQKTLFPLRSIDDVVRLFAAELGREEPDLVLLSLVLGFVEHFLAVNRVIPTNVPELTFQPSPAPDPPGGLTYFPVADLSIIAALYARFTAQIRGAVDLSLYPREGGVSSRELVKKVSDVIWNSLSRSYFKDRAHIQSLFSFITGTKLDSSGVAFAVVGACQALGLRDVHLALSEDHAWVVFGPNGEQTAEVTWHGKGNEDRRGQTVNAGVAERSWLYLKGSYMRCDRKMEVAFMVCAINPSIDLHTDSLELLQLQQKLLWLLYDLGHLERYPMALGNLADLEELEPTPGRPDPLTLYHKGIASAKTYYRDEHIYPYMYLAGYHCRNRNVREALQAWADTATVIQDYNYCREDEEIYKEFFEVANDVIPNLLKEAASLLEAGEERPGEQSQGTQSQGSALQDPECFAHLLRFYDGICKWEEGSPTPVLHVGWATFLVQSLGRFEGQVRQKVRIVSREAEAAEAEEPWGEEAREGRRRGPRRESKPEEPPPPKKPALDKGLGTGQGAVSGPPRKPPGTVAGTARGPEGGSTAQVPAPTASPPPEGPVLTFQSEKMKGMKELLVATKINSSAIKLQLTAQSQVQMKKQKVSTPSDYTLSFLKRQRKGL
Procedure, shortened: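 Competitive FP with FAM-labeled MLL1 peptide probe FAM-MM2 (2 nM) and menin (4 nM) in PBS, 0.02% bovine γ-globulin, 4% DMSO, 0.01% Triton X-100. After 30 min at room temperature, mP read at 485/530 nm; IC50 from nonlinear regression against probe-only and complex-only controls.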

MV4-11 = assay: 7-day proliferation assay (WST-8), cell growth inhibition; type: cell-based; conditions: Homo sapiens, MV4-11, 168 h, MV4-11 cells, 7 days
Procedure, shortened: (§1)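 Cells seeded at 2,000-3,000/well were exposed to serially diluted compound for 7 days at 37° C., 5% CO2. Viability was read by WST-8 absorbance at 450 nm after 1-2 h color development; readings normalized to DMSO-treated cells, IC50 by four-parameter nonlinear regression.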

MOLM13 = assay: as above; type: cell-based; conditions: Homo sapiens, MOLM-13, 168 h, MOLM13 cells, 7 days
Procedure, shortened: as §1

SMILES | IC50 (menin protein) [nM] | IC50 (MV4-11) [nM] | IC50 (MOLM13) [nM]
COC(=O)N[C@H]1CCC[C@@H]1[C@](CN(C)C)(c1cccc(F)c1)C1CCN(CC2CN(c3ccc(S(=O)(=O)C4CN(C(=O)/C=C/CN(C)C)C4)cc3)C2)CC1 [Cpd. No. 2, methyl ((1S,2R)-2-((S)-2-(dimethylamino)-1-(1-((1-(4-((1-((E)-4-(dimethylamino)but-2-enoyl)azetidin-3-yl)sulfonyl)phenyl)azetidin-3-yl)methyl)piperidin-4-yl)-1-(3-fluorophenyl)ethyl)cyclopentyl)carbamate] | 5 | < 10 | < 10
COC(=O)N[C@H]1CCC[C@@H]1[C@](CN1CCCC1)(c1cccc(F)c1)C1CCN(CC2CN(c3ccc(S(=O)(=O)C4CN(C(=O)/C=C/CN(C)C)C4)cc3)C2)CC1 [Cpd. No. 3] | 2 | < 50 | < 50
COC(=O)N[C@H]1CCC[C@@H]1[C@](CN1CCC1)(c1cccc(F)c1)C1CCN(CC2CN(c3ccc(S(=O)(=O)C4CN(C(=O)/C=C/CN(C)C)C4)cc3)C2)CC1 [Cpd. No. 5, methyl ((1S,2R)-2-((S)-2-(azetidin-1-yl)-1-(1-((1-(4-((1-((E)-4-(dimethylamino)but-2-enoyl)azetidin-3-yl)sulfonyl)phenyl)azetidin-3-yl)methyl)piperidin-4-yl)-1-(3-fluorophenyl)ethyl)cyclopentyl)carbamate] | 3 | < 10 | < 50
COC(=O)N[C@H]1CCC[C@@H]1[C@](CN1CCC1)(c1cccc(F)c1)C1CCN(CC2(F)CN(c3ccc(S(=O)(=O)C4CN(C(=O)/C=C/CN(C)C)C4)cc3)C2)CC1 [Cpd. No. 7, methyl ((1S,2R)-2-((S)-2-(azetidin-1-yl)-1-(1-((1-(4-((1-((E)-4-(dimethylamino)but-2-enoyl)azetidin-3-yl)sulfonyl)phenyl)-3-fluoroazetidin-3-yl)methyl)piperidin-4-yl)-1-(3-fluorophenyl)ethyl)cyclopentyl)carbamate] | 2 | < 10 | < 100
C=C(CN1CCOCC1)C(=O)N1CC(S(=O)(=O)c2ccc(N3CC(F)(CN4CCC([C@@](CN5CCC5)(c5cccc(F)c5)[C@H]5CCC[C@@H]5NC(=O)OC)CC4)C3)cc2)C1 [Cpd. No. 12, methyl ((1S,2R)-2-((S)-2-(azetidin-1-yl)-1-(1-((3-fluoro-1-(4-((1-(2-(morpholinomethyl)acryloyl)azetidin-3-yl)sulfonyl)phenyl)azetidin-3-yl)methyl)piperidin-4-yl)-1-(3-fluorophenyl)ethyl)cyclopentyl)carbamate] | 2 | < 10 | < 100
C=C(CN(C)C)C(=O)N1CC(S(=O)(=O)c2ccc(N3CC(F)(CN4CCC([C@@](CN5CCC5)(c5cccc(F)c5)[C@H]5CCC[C@@H]5NC(=O)OC)CC4)C3)cc2)C1 [Cpd. No. 13, methyl ((1S,2R)-2-((S)-2-(azetidin-1-yl)-1-(1-((1-(4-((1-(2-((dimethylamino)methyl)acryloyl)azetidin-3-yl)sulfonyl)phenyl)-3-fluoroazetidin-3-yl)methyl)piperidin-4-yl)-1-(3-fluorophenyl)ethyl)cyclopentyl)carbamate] | 1 | < 10 | < 100
C=C(CN1CCCCC1)C(=O)N1CC(S(=O)(=O)c2ccc(N3CC(CN4CCC([C@@](CN5CCC5)(c5cccc(F)c5)[C@H]5CCC[C@@H]5NC(=O)OC)CC4)C3)cc2)C1 [Cpd. No. 17, methyl ((1S,2R)-2-((S)-2-(azetidin-1-yl)-1-(3-fluorophenyl)-1-(1-((1-(4-((1-(2-(piperidin-1-ylmethyl)acryloyl)azetidin-3-yl)sulfonyl)phenyl)azetidin-3-yl)methyl)piperidin-4-yl)ethyl)cyclopentyl)carbamate] | 2 | < 10 | < 100
C=C(CN1CCCCC1)C(=O)N1CC(S(=O)(=O)c2ccc(N3CC(F)(CN4CCC([C@@](CN5CCC5)(c5cccc(F)c5)[C@H]5CCC[C@@H]5NC(=O)OC)CC4)C3)cc2)C1 [Cpd. No. 18, methyl ((1S,2R)-2-((S)-2-(azetidin-1-yl)-1-(1-((3-fluoro-1-(4-((1-(2-(piperidin-1-ylmethyl)acryloyl)azetidin-3-yl)sulfonyl)phenyl)azetidin-3-yl)methyl)piperidin-4-yl)-1-(3-fluorophenyl)ethyl)cyclopentyl)carbamate] | 2 | < 10 | < 100
C=C(CN1CCCC1)C(=O)N1CC(S(=O)(=O)c2ccc(N3CC(CN4CCC([C@@](CN5CCC5)(c5cccc(F)c5)[C@H]5CCC[C@@H]5NC(=O)OC)CC4)C3)cc2)C1 [Cpd. No. 19, methyl ((1S,2R)-2-((S)-2-(azetidin-1-yl)-1-(3-fluorophenyl)-1-(1-((1-(4-((1-(2-(pyrrolidin-1-ylmethyl)acryloyl)azetidin-3-yl)sulfonyl)phenyl)azetidin-3-yl)methyl)piperidin-4-yl)ethyl)cyclopentyl)carbamate] | 1 | < 10 | < 100
COC(=O)N[C@H]1CCC[C@@H]1[C@](CN1CCC1)(c1cccc(F)c1)C1CCN(CC2CN(c3ccc(S(=O)(=O)C4CN(C(=O)/C=C/CN5CCCC5)C4)cc3)C2)CC1 [Cpd. No. 20, methyl ((1S,2R)-2-((S)-2-(azetidin-1-yl)-1-(3-fluorophenyl)-1-(1-((1-(4-((1-((E)-4-(pyrrolidin-1-yl)but-2-enoyl)azetidin-3-yl)sulfonyl)phenyl)azetidin-3-yl)methyl)piperidin-4-yl)ethyl)cyclopentyl)carbamate] | 2 | < 10 | < 100
COC(=O)N[C@H]1CCC[C@@H]1[C@](CN1CCC1)(c1cccc(F)c1)C1CCN(CC2CN(c3ccc(S(=O)(=O)C4CN(C(=O)/C=C/CN5CCCCC5)C4)cc3)C2)CC1 [Cpd. No. 24, methyl ((1S,2R)-2-((S)-2-(azetidin-1-yl)-1-(3-fluorophenyl)-1-(1-((1-(4-((1-((E)-4-(piperidin-1-yl)but-2-enoyl)azetidin-3-yl)sulfonyl)phenyl)azetidin-3-yl)methyl)piperidin-4-yl)ethyl)cyclopentyl)carbamate] | 3 | < 10 | < 10
COC(=O)N[C@H]1CCC[C@@H]1[C@](CN1CCC1)(c1cccc(F)c1)C1CCN(CC2CN(c3ccc(S(=O)(=O)C4CN(C(=O)/C=C/CN5CC(F)C5)C4)cc3)C2)CC1 [Cpd. No. 174] | 2 | < 10 | < 10
COC(=O)N[C@H]1CCC[C@@H]1[C@](CN1CCC1)(c1cccc(F)c1)C1CCN(CC2CN(c3ccc(S(=O)(=O)C4CN(C(=O)/C=C/CN5CC(F)(F)C5)C4)cc3)C2)CC1 [Cpd. No. 175] | 1 | < 10 | < 10
C=CC(=O)Nc1cccc(S(=O)(=O)c2ccc(N3CC(F)(CN4CCC([C@@](CN5CCC5)(c5cccc(F)c5)[C@H]5CCC[C@@H]5NC(=O)OC)CC4)C3)c(F)c2)c1 [compound 80] | 2 | < 50 | < 50
COC(=O)N[C@H]1CCC[C@@H]1[C@](CN1CCC1)(c1cccc(F)c1)C1CCN(CC2CN(c3ccc(S(=O)(=O)C4CN(C(=O)/C=C/CN5CCC(C)(O)CC5)C4)cc3)C2)CC1 [compound 99] | 9 | < 10 | < 100
COC(=O)N[C@H]1CCC[C@@H]1[C@](CNC(C)=O)(c1cccc(F)c1)C1CCN(CC2CN(c3ccc(S(=O)(=O)C4CN(C(=O)/C=C/CN5CCCCC5)C4)c(CN4CC(F)C4)c3)C2)CC1 [compound 131] | 2 | < 10 | < 10
C=CC(=O)N1CCCCC(S(=O)(=O)c2ccc(N3CC(F)(CN4CCC([C@@](CN5CCC5)(c5cccc(F)c5)[C@H]5CCC[C@@H]5NC(=O)OC)CC4)C3)cc2)C1 (stereo partly drawn) [compound 215] | 1 | < 10 | < 10
C=CC(=O)N1CCOC[C@@H](S(=O)(=O)c2ccc(N3CC(F)(CN4CCC([C@@](CN5CCC5)(c5cccc(F)c5)[C@H]5CCC[C@@H]5NC(=O)OC)CC4)C3)c(F)c2)C1 [compound 216] | 2 | < 50 | < 100
C=CC(=O)N1CCOC[C@@H](S(=O)(=O)c2ccc(N3CC(C)(CN4CCC([C@@](CN5CCC5)(c5cccc(F)c5)[C@H]5CCC[C@@H]5NC(=O)OC)CC4)C3)c(F)c2)C1 [compound 217] | 2 | < 10 | < 100
C=CC(=O)N1CCOC[C@@H](S(=O)(=O)c2ccc(N3CC(CN4CCC([C@@](CN5CCC5)(c5cccc(F)c5)[C@H]5CCC[C@@H]5NC(=O)OC)CC4)C3)c(F)c2)C1 [compound 218] | 2 | < 50 | < 1000
